The text below walks through data of patent US20060045953A1 (priority 2004, published 2006).

Structures are written as SMILES.

For one test, the target named is T1, hT1R1/hT1R3 umami receptor (Homo sapiens, UniProt Q7RTX0+Q7RTX1).
T1 construct: expressed in transfected cells; host or cells: HEK293 derivative stably expressing Gα15, clone I-17, expression induced with mifepristone
T1 sequence (Q7RTX1 21-841): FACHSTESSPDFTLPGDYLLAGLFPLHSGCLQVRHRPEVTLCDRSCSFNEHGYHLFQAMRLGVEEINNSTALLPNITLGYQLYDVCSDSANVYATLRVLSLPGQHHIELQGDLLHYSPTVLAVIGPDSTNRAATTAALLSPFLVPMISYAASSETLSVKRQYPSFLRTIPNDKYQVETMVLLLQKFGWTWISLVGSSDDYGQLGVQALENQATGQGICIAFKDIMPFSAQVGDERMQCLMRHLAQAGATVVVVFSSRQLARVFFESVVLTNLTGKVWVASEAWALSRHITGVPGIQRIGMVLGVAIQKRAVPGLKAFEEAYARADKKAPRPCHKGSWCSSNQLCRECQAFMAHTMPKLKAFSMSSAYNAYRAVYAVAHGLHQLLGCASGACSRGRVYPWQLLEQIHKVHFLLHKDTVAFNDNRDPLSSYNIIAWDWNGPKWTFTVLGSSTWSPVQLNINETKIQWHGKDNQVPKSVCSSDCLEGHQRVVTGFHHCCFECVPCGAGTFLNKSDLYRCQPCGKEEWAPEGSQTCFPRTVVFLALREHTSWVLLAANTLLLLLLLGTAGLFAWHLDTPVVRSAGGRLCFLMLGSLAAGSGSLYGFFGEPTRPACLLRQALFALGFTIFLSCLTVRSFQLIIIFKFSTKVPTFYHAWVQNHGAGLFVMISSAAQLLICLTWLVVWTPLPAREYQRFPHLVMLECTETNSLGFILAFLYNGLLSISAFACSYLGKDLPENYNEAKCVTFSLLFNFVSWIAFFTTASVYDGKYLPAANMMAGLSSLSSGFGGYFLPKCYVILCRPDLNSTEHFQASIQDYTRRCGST
T1 sequence (Q7RTX0 21-852): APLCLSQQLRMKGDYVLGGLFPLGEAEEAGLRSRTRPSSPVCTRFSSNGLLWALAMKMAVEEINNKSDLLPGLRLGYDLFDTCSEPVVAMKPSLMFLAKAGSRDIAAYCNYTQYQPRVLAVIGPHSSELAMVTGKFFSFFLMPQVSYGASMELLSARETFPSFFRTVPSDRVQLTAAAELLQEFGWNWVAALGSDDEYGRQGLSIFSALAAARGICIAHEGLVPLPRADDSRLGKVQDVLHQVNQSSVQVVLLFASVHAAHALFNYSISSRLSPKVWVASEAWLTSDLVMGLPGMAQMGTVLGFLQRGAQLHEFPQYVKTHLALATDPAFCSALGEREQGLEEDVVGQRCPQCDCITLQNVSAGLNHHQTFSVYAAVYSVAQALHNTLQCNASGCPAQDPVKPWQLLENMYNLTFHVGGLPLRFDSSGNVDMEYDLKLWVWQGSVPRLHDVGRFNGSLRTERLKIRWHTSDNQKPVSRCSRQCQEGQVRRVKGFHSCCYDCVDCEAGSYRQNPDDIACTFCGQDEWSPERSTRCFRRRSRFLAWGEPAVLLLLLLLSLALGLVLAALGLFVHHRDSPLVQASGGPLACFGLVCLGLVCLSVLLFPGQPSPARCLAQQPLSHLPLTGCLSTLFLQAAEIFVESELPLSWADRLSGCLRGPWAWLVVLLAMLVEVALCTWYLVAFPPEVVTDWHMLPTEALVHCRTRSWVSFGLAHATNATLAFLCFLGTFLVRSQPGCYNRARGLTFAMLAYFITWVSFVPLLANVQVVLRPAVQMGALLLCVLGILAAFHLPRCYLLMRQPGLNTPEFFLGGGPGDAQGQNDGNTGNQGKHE
Put plainly: In vitro hT1R1/hT1R3 umami taste receptor activation assay (FLIPR, dose response). The conditions noted are these: Table A, Umami Amides; read-out: Umami EC50. Type of test: cell-based. An excerpt: In order to identify new savory flavoring agents and enhancers, including compounds with savory agonist and enhancer activities (dual activity), the compounds of Formula (I) were screened in primary assays and secondary assays including compound dose response and enhancement assay. In a primary assay for potential ability to modulate umami taste, amide compounds of Formula (I) that can be either savory flavoring agents in their own right or flavor enhancers of MSG are identified and scores of their activities are given as percentage of the maximum MSG intensity (%). In compound dose response, an EC50 is calculated to reflect the potency of the compound as a savory agonist or enhancer.
An HEK293 cell line derivative (See e.g., Chandrashekar, et al., Cell (2000) 100: 703-711) which stably expresses Gα15 and hT1R1/hT1R3 under an inducible promoter (see WO 03/001876 A2) was used to identify compounds with savory tasting properties.
For dose-responses analysis, stimuli were presented in duplicates at 10 different concentrations ranging from 1.5 nM to 30 μM. Activities were normalized to the response obtained with 60 mM monosodium glutamate, a concentration that elicits maximum receptor response. […] Identical results were obtained when analyzing the dose-response data using commercially available software for non-linear regression analysis such as GraphPad PRISM (San Diego, Calif.).
As to `CCCC(COC)NC(=O)c1ccc(OC)c(C)c1` (stereo not shown) [Example A97, 4-methoxy-N-(1-methoxypentan-2-yl)-3-methylbenzamide], the EC50 came out at 850 nM.
The same measure, in the same setting: in the case of `CCCC(CCC)NC(=O)c1cccc(OC)c1` [Example A90, N-(heptan-4-yl)-3-methoxybenzamide] it was 610 nM.
Still for that read-out and setting: in the case of `CCCC(CCC)NC(=O)c1ccc(OC)c(F)c1` [Example A74, 3-fluoro-N-(heptan-4-yl)-4-methoxybenzamide] it was 350 nM; in that of `CCSc1ccc(C(=O)N[C@H](CC(C)C)C(=O)OC)cc1` [Example A60, (R)-methyl 2-(4-(ethylthio)benzamido)-4-methylpentanoate], 200 nM.
Still for that read-out and setting: in the case of `COC(=O)C(CC(C)C)NC(=O)c1cc2ccccc2o1` (stereo in doubt) [Example A5, 2-[(Benzofuran-2-carbonyl)-amino]-4-methyl-pentanoic acid methyl ester] it was 310 nM; in that of `CCCC(CCC)NC(=O)c1ccc2c(c1)NCCC2` [Example A119, N-(heptan-4-yl)-1,2,3,4-tetrahydroguinoline-7-carboxamide], 50 nM; in that of `CCCC(CCC)NC(=O)c1cc2c(s1)CCC2` [Example A121, N-(heptan-4-yl)-5,6-dihydro-4H-cyclopenta[b]thiophene-2-carboxamide], 150 nM.
Regarding `CCCC(C)NC(=O)c1ccc(OC)c(Cl)c1` (stereo not shown) [Example A80, 3-chloro-4-methoxy-N-(pentan-2-yl)benzamide], the EC50 worked out at 470 nM.
The same measure, in the same setting: in the case of `COC(=O)[C@@H](CC(C)C)NC(=O)c1ccc2occc2c1` [Example A9, (R)-methyl 2-(benzofuran-5-carboxamido)-4-methylpentanoate] it was 710 nM; in that of `CCC(NC(=O)c1ccc(OC)c(C)c1)C(C)C` (stereo not shown) [Example A58, 4-methoxy-3-methyl-N-(2-methylpentan-3-yl)benzamide], 200 nM.
Same read-out and setting: in the case of `C=Cc1ccc(C(=O)N[C@H](CC(C)C)C(=O)OC)cc1` [Example A57, (R)-methyl 4-methyl-2-(4-vinylbenzamido)pentanoate] it was 180 nM; in that of `CCCOC(=O)[C@@H](CC(C)C)NC(=O)c1ccc2c(c1)OCO2` [Example A51, (R)-propyl 2-(benzo[d][1,3]dioxole-5-carboxamido)-4-methylpentanoate], 1580 nM.

Still in this test, the particulars now being: Table C, Umami Ureas; read-out: Umami EC50.
`COc1ccc(NC(=O)NC2CCCCC2C)c(OC)c1` (stereo not shown) [Example C8, 1-(2,4-dimethoxyphenyl)-3-(2-methylcyclohexyl)urea]: the EC50 worked out at 1410 nM.
For the molecule `O=C(Nc1ccccc1Cl)NC1CCCc2ccccc21` (stereo not shown) [Example C7, 1-(2-chlorophenyl)-3-(1,2,3,4-tetrahydronaphthalen-1-yl)urea], the EC50 was determined as 990 nM.
The same measure, in the same setting: the figure for `CSc1ccccc1NC(=O)NC(C(C)C)C(C)C` [Example C14, 1-(2,4-dimethylpentan-3-yl)-3-(2-(methylthio)phenyl)urea] is 140 nM; for `CC(NC(=O)Nc1ccccc1Cl)C1CCCCC1` (stereo not shown) [Example C5, 1-(2-chlorophenyl)-3-(1-cyclohexylethyl)urea] it is 840 nM.

The same test, now with this note: Table D, Umami Acrylamides; read-out: Umami EC50.
For `CCCCC(NC(=O)/C=C/c1ccc(OC)cc1)C(=O)OC` (stereo not shown) [Example D3, (E)-methyl 2-(3-(4-methoxyphenyl)acrylamido)hexanoate], the EC50 is 630 nM.

The test is the same for the next values; noted with them: opposite enantiomers compared; read-out: AFFINITY FOR T1R1/T1R3 SAVORY RECEPTOR EC50 UM.
For the molecule `COc1ccc(C(=O)N[C@@H]2CCc3ccccc32)cc1C` [(R)-N-(2,3-dihydro-1H-inden-1-yl)-4-methoxy-3-methylbeuzamide], the EC50 came to 2130 nM.

The same test, now with this note: read-out: EC50 for activation of a hT1R1/hT1R3 umami receptor expressed in an HEK293 cell line.
Consider `CCCC(NC(=O)c1ccc(OC)c(C)c1)c1ccccc1` (stereo not shown) [Example 113, 4-Methoxy-3-methyl-N-(1-phenyl-butyl)-benzamide], for which the EC50 stood at 2500 nM.
The same measure, in the same setting: the figure for `COCC(NC(=O)c1ccc(C)c(C)c1)C(C)C` (stereo not shown) [Example 73, N-(1-Methoxymethyl-2-methyl-propyl)-3,4-dimethyl-benzamide] is 870 nM.
Same read-out and setting: the figure for `CCC(CC)NC(=O)/C=C/c1ccc(OCCO)cc1` [Example 76, N-(1-Ethyl-propyl)-3-[4-(2-hydroxy-ethoxy)-phenyl]-acrylamide] is 5800 nM.
The same measure, in the same setting: in the case of `CCCC(CCC)NC(=O)c1cnc2ccccc2c1` [Example 102, N-(heptan-4-yl)quinoline-3-carboxamide] it was 15800 nM; in that of `Cc1ccc(CCNC(=O)c2occc2C)cc1` [Example 120, 3-methyl-N-(p-tolylethyl)furan-2-carboxamide], 6000 nM; in that of `O=C(NCCc1ccccn1)C(=O)NCc1cc2ccccc2s1` [Example 150, N-(Benzo[b]thiophen-2-ylmethyl)-N′-(2-(pyridin-2-yl)ethyl)oxalamide], 740 nM.
`COc1ccc([C@@H](C)NC(=O)c2ccc(OC)c(C)c2)cc1` [Example 117, 4-Methoxy-N-[1-(R)-(4-methoxy-phenyl)-ethyl]-3-methyl-benzamide]: the EC50 was 2800 nM.
The same measure, in the same setting: the figure for `COC(=O)[C@@H](CC1CCCCC1)NC(=O)c1cc2cc(OC)ccc2o1` [Example 30, (R)-methyl 3-cyclohexyl-2-(5-methoxybenzofuran-2-carboxamido)propanoate] is 1140 nM; for `COc1ccccc1/C=C/C(=O)NC1CCCCC1C` (stereo not shown) [Example 89, 3-(2-Methoxy-phenyl)-N-(2-methyl-cyclohexyl)-acrylamide] it is 3400 nM; for `CCC(CC(C)C)NC(=O)/C=C/c1ccc(OC)cc1` (stereo not shown) [Example 75] it is 240 nM.
Still for that read-out and setting: the figure for `COc1ccc(CNC(=O)c2ccccc2-n2cccc2)c(OC)c1` [Example 121, N-(2,4-dimethoxybenzyl)-2-(1H-pyrrol-1-yl)benzamide] is 1660 nM; for `COC(=O)[C@@H](CC(C)C)NC(=O)c1cc(OC)nc(OC)c1` [Example 93, (R)-methyl 2-(2,6-dimethoxyisonicotinamido)-4-methylpentanoate] it is 1910 nM.
Still for that read-out and setting: in the case of `Cc1cc(C(=O)NC(C)CCc2ccccc2)ccc1O` (stereo not shown) [Example 111, 4-Hydroxy-3-methyl-N-(1-methyl-3-phenyl-propyl)-benzamide] it was 2700 nM.
With `CCCC(CCC)NC(=O)c1cc2ccccc2n1C` [Example 37, N-(heptan-4-yl)-1-methyl-1H-indole-2-carboxamide], the EC50 worked out at 1790 nM.
On the same count and under the same terms, in the case of `CCCC(CC)NC(=O)c1cc2cc(C)ccc2o1` (stereo not shown) [Example 28, N-(hexan-3-yl)-5-methylbenzofuran-2-carboxamide] it was 740 nM; in that of `COc1ccc(CNC(=O)C(=O)NCCCc2ccccn2)c(OC)c1` [Example 127, N-(2,4-Dimethoxy-benzyl)-N′-(3-pyridin-2-yl-propyl)-oxalamide], 1840 nM.
